{"source": "patent US20100035848A1", "about": "“THERAPY FOR DISORDERS OF THE PROXIMAL DIGESTIVE TRACT” (priority 2008, published 2010)", "format_in_all_cases": "in vivo, rat", "key": {"[1]": {"tested_on": "diclofenac-induced gastric damage", "test": "Acute diclofenac-induced gastric toxicity in rats: gastric damage score", "details": "Group C: GL1001 90 mg/kg oral gavage 30 min before diclofenac 50 mg/kg oral, 3 h; vehicle-diclofenac Group B 17.80 ± 5.08; p<0.02", "experimental": "(§1) Male Wistar rats were deprived of food but not water for 16 hours prior to oral administration of GL1001 90 mg/kg, incubated for 30 minutes and then given oral diclofenac 50 mg/kg. Each group consisted of 6 rats. As a negative control, one group received vehicle pretreatment, and then received vehicle instead of diclofenac. A positive control group received PGE2 100 μg/kg orally, 30 minutes prior to administration of diclofenac. All treatments were administered by oral gavage.\n(§2) Three hours after diclofenac treatment, all animals were sacrificed and stomachs were removed and imaged to determine the severity of gastric damage. Additionally, stomach tissue samples were taken to assess disease activity and pharmacodynamic effects. Gastric damage scores were determined from photographic images (Ma & Wallace (2003) Am. J. Physiol. Gastrointest. Liver Physiol. 279; 341-346). Removed stomachs were opened along the greater curvature, pinned out on a wax block, and photographed along a 25 mm ruler reference with a digital 35 mm camera. The lesion area was then determined using enlarged images and computer software (www.scioncorp.co/pages/scion_image_windows.htm) that allows superimposed drawing of the perimeter of a wound and calculation of the area based on the ruler reference. Stomach samples (excluding forestomach) were used for measurements of PGE2 concentration, MPO activity and ACE2 activity. PRE2 determinations are used in this study as a hiomarker of diclofenac effect since its mechanism of action involves inhibition of cyclooxygenase (COX-2 and COX-1) enzymes which in turn results in inhibition of PGE2 synthesis. Concentration of PGE2 from stomach tissue samples was performed as described by Souza et al. (2003), supra, and quantification was obtained by LC-MS. MTO, an enzyme found in abundance in granulocytes, is used as a biochemical marker of tissue inflammation. When tissues undergo inflammatory processes, granulocytes are recruited to the site of inflammation and infiltrate the affected tissue giving rise to increase MPO activity (Souza et al. (2003), supra). Last, the extent of inhibition of ACE2 activity was determined to establish whether GL1001 was effective in inhibiting its ACE2 target in stomach tissues. The ACE2 activity assay is similar to the method of Vickers et al. (2002) J. Biol. Chem. 277:14838-14843, wherein purified recombinant ACE2 (100 pM) and a quenched fluorescent substrate (100-150 μM APK (7-methoxycoumarin-4-yl)acetyl-Ala-Pro-Lys (2,4-dinitrophenyl)) are used in end-point fluorescence reactions (excitation 320 nm, emission 405 nm). For stomach ACE2 measurements, tissues were homogenized in the presence of a general protease inhibitor (PMSF) and specific ACE inhibitors. […]\n(§3) Data are expressed as means with standard errors. […]"}, "gastric PGE2 synthesis": {"tested_on": "gastric PGE2 synthesis", "test": "Acute indomethacin-induced gastric toxicity in rats: gastric PGE2 synthesis", "details": "indomethacin 20 mg/kg p.o.", "experimental": "A study was conducted to determine whether GL1001 would inhibit acute NSAID (indomethacin)-induced gastric toxicity in a rat model (Wallace et al. (1998) Gastroenterol. 115:101-109). Several modes of treatment with GL1001 or vehicle were employed, which included administration via drinking water, oral administration and subcutaneous administration as shown in Table 4. Irrespective of the route of drug or vehicle administration, male Wistar rats were deprived of food for 16 h prior to oral administration of 20 mg/kg indomethacin (Sigma) or vehicle (5% w/v sodium bicarbonate; 1 ml/kg). Three hours later the rats were sacrificed and the severity of gastric damage was blindly scored. This involved measurement of the lengths (in mm) of all hemorrhagic erosions and summing these to give a “gastric damage score” for each stomach. Samples of the stomach were taken for measurement of prostaglandin E2 (PGE2) synthesis as described by Wallace et al. (1998), supra, and myeloperoxidase activity as described by Souza et al. (2003) Am. J. Physiol. 285:[…]-61. Myeloperoxidase is an enzyme found in all cells of mycloid origin, but particularly enriched within neutrophils. It is therefore used as a biochemical marker of granulocyte infiltration into tissue. Each group consisted of 6 rats. As a negative control, one group received vehicle pretreatments (in the drinking water and by oral gavage) and then received vehicle instead of indomethacin. […] [table] In the experiments where GL1001 (or vehicle) was added to drinking water, the rats were provided with the modified drinking water for 2 days prior to administration of indomethacin (or vehicle). This included the period when the rats were deprived of food. GL1001 was prepared in 0.1M citrate buffer before being added to the drinking water. Based on average water consumption by rats, this was aimed at providing a daily dose of GL1100 of 1200 mg/kg (water consumption was monitored for several days prior to initiation of the study). Oral or subcutaneous administration of GL1001 (or vehicle) was performed 30 minutes prior to administration of indomethacin. Data are expressed as mean±SEM. When two groups of data were compared, a Student's t-test was used. When more than two groups of data were compared, a one-way analysis of variance followed by the Newman-Keuls test was used. An associated probability of less than 5% was considered statistically significant."}, "gastric PGE2": {"tested_on": "gastric PGE2", "test": "Acute diclofenac-induced gastric toxicity in rats: gastric PGE2 concentration", "details": "Group C: GL1001 oral before diclofenac 50 mg/kg; vehicle/vehicle Group A 43.22 ± 12.13", "experimental": "as §1\nas §2, with “PRE2 determinations are used in this study as a hiomarker of diclofenac effect since its mechanism of action involves inhibition of cyclooxygenase (COX-2 and COX-1) enzymes which in turn results in inhibition of PGE2 synthesis.” left out, “MTO, an enzyme found in abundance in granulocytes, is used as a biochemical marker of tissue inflammation. When tissues undergo inflammatory processes, granulocytes are recruited to the site of inflammation and infiltrate the affected tissue giving rise to increase MPO activity (Souza et al. (2003), supra).” left out, “nm).” for “nm). For stomach ACE2 measurements, tissues were homogenized in the presence of a general protease inhibitor (PMSF) and specific ACE inhibitors.”\nas §3"}}, "note": "Several values for one entry are separate records, joined by “and”; a condition that tells them apart may be missing. Equal values may be shown once.", "data": [{"smiles": "CC(C)C[C@H](N[C@@H](Cc1cncn1Cc1cc(Cl)cc(Cl)c1)C(=O)O)C(=O)O", "note": "[GL1001, (S,S)-2-[1-carboxy-2-[3-(3,5-dichlorobenzyl)-3H-imidazol-4-yl]-ethylamino]-4-methylpentanoic acid]", "values": [{"measurement": "Gastric damage score", "setting": "[1]", "value": "2.6 and 2.63 ± 0.87"}, {"measurement": "Gastric PGE2 synthesis", "setting": "gastric PGE2 synthesis; Group A: GL1001 in drinking water, vehicle Group B 3.83 ± 0.98", "value": "5.31 ± 1.54", "unit": "ng/mg"}, {"measurement": "Gastric PGE2 synthesis", "setting": "gastric PGE2 synthesis; Group C: GL1001 p.o. and in drinking water, vehicle Group D 3.07 ± 0.55", "value": "2.37 ± 0.51", "unit": "ng/mg"}, {"measurement": "Gastric PGE2 synthesis", "setting": "gastric PGE2 synthesis; Group F: GL1001 s.c. and in drinking water, vehicle Group G 3.60 ± 0.32", "value": "3.57 ± 0.59", "unit": "ng/mg"}, {"measurement": "Gastric PGE2 synthesis", "setting": "gastric PGE2 synthesis; Group H: GL1001 p.o., vehicle Group I 6.08 ± 1.00", "value": "4.44 ± 0.40", "unit": "ng/mg"}, {"measurement": "Gastric PGE2 concentration", "setting": "gastric PGE2", "value": 0, "unit": "pg/mg"}]}]}
